According to PubChem BioAssay AID2060912 (Molecular Pharmacology Branch, DTP, NCI, 2025):
Where “and” joins values, the source holds several entries; their conditions need not be identical. Equal values may be shown once.

Test system: HUVEC/MSC spheroids viability
Assay: Human HUVEC/MSC cell line growth inhibition [KRAS2];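 as to viability, T/C: percent of DMSO vehicle control luminescence so 100% = untreated viability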
Conditions: for viability, T/C: stronger effect = lower value
In short: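 Concentration ranges start near each agent's clinical Cmax, or at 10 microM if none is established, and fall by half-log increments. These ranges are tested as single agents and combinations on endothelial/mesenchymal stem cell spheroids lacking tumour cells.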

Question: What does the source list for CC(C)NCC(C(=O)N1CCN(c2ncnc3c2C(C)CC3O)CC1)c1ccc(Cl)cc1 (stereo unspecified)?
Answer: viability, T/C (compound 0.316 µM): 83.5% [middle of 5 runs]; viability, T/C (compound 1 µM): 71.7% [middle of 5 runs]; viability, T/C (compound 10 µM): 51.3% [middle of 5 runs]; IC50 (curve of compound): > 10 µM and 2.61 µM and 9.3 µM

Question: COc1cc(Nc2ncc3c(n2)-c2ccc(Cl)cc2C(c2c(F)cccc2OC)=NC3)ccc1C(=O)O + C=CC(=O)N1CCN(c2nc(OCC3CCCN3C)nc3c2CCN(c2cccc4cccc(C)c24)C3)CC1CC#N was tested. Which IC50 (curve of first compound, second compound 0.00949 µM) did it give?
Answer: > 10 µM

Question: And the IC50 (curve of first compound, second compound 0.03 µM)?
Answer: > 10 µM

Question: And the IC50 (curve of first compound, second compound 0.0949 µM)?
Answer: > 10 µM

Question: What about the IC50 (curve of first compound, second compound 0.3 µM) of the same compound?
Answer: > 10 µM

Question: And the IC50 (curve of first compound, second compound 0.949 µM)?
Answer: 7.03 µM

Question: And the IC50 (curve of first compound, second compound 3 µM)?
Answer: 5.92 µM

Question: And the viability, T/C (second compound 0.00949 µM, first compound 0.0316 µM)?
Answer: 93.2%

Question: What about the viability, T/C (second compound 0.00949 µM, first compound 0.1 µM) of the same compound?
Answer: 88%

Question: And the viability, T/C (second compound 0.00949 µM, first compound 0.316 µM)?
Answer: 87.1%

Question: And the viability, T/C (second compound 0.00949 µM, first compound 1 µM)?
Answer: 83.8%

Question: And the viability, T/C (second compound 0.00949 µM, first compound 3.16 µM)?
Answer: 105%

Question: And the viability, T/C (second compound 0.00949 µM, first compound 10 µM)?
Answer: 66.6%

Question: And the viability, T/C (second compound 0.03 µM, first compound 0.0316 µM)?
Answer: 77.3%

Question: What about the viability, T/C (second compound 0.03 µM, first compound 0.1 µM) of the same compound?
Answer: 86.9%

Question: What about the viability, T/C (second compound 0.03 µM, first compound 0.316 µM) of the same compound?
Answer: 86%

Question: And the viability, T/C (second compound 0.03 µM, first compound 1 µM)?
Answer: 82.9%

Question: What about the viability, T/C (second compound 0.03 µM, first compound 3.16 µM) of the same compound?
Answer: 102%

Question: What about the viability, T/C (second compound 0.03 µM, first compound 10 µM) of the same compound?
Answer: 68.2%

Question: What about the viability, T/C (second compound 0.0949 µM, first compound 0.0316 µM) of the same compound?
Answer: 80.4%

Question: What about the viability, T/C (second compound 0.0949 µM, first compound 0.1 µM) of the same compound?
Answer: 108%

Question: What about the viability, T/C (second compound 0.0949 µM, first compound 0.316 µM) of the same compound?
Answer: 98.5%

Question: What about the viability, T/C (second compound 0.0949 µM, first compound 1 µM) of the same compound?
Answer: 74.7%

Question: What about the viability, T/C (second compound 0.0949 µM, first compound 3.16 µM) of the same compound?
Answer: 81.6%

Question: What about the viability, T/C (second compound 0.0949 µM, first compound 10 µM) of the same compound?
Answer: 61.2%

Question: And the viability, T/C (second compound 0.3 µM, first compound 0.0316 µM)?
Answer: 79.8%

Question: What about the viability, T/C (second compound 0.3 µM, first compound 0.1 µM) of the same compound?
Answer: 79.5%

Question: What about the viability, T/C (second compound 0.3 µM, first compound 0.316 µM) of the same compound?
Answer: 76.9%

Question: What about the viability, T/C (second compound 0.3 µM, first compound 1 µM) of the same compound?
Answer: 91.1%

Question: What about the viability, T/C (second compound 0.3 µM, first compound 3.16 µM) of the same compound?
Answer: 87.5%

Question: What about the viability, T/C (second compound 0.3 µM, first compound 10 µM) of the same compound?
Answer: 69%

Question: What about the viability, T/C (second compound 0.949 µM, first compound 0.0316 µM) of the same compound?
Answer: 59.9%

Question: And the viability, T/C (second compound 0.949 µM, first compound 0.1 µM)?
Answer: 78.9%

Question: And the viability, T/C (second compound 0.949 µM, first compound 0.316 µM)?
Answer: 92.3%

Question: What about the viability, T/C (second compound 0.949 µM, first compound 1 µM) of the same compound?
Answer: 75.8%

Question: What about the viability, T/C (second compound 0.949 µM, first compound 3.16 µM) of the same compound?
Answer: 73.2%

Question: And the viability, T/C (second compound 0.949 µM, first compound 10 µM)?
Answer: 39.7%

Question: What about the viability, T/C (second compound 3 µM, first compound 0.0316 µM) of the same compound?
Answer: 93.4%

Question: What about the viability, T/C (second compound 3 µM, first compound 0.1 µM) of the same compound?
Answer: 88.5%

Question: What about the viability, T/C (second compound 3 µM, first compound 0.316 µM) of the same compound?
Answer: 96.4%

Question: And the viability, T/C (second compound 3 µM, first compound 1 µM)?
Answer: 102%

Question: What about the viability, T/C (second compound 3 µM, first compound 3.16 µM) of the same compound?
Answer: 73.2%

Question: And the viability, T/C (second compound 3 µM, first compound 10 µM)?
Answer: 30.7%
